Consider four compounds from patent US7977375B2, “Antibiotic and method of production thereof” (Helmholtz-Zentrum Für Infektionsforschung GmbH, priority 2004, dated 2011).

Converted amounts (≈) assume the structure as drawn.

The term zone of inhibition denotes the extent of the growth-free halo in a diffusion test. A high value points to wide suppression of growth.

For data set [1], the system named is MRSA 2 (methicillin-resistant S. aureus, clinical isolate). In words: agar diffusion method, inhibition zone. Type of data set: cell-based, Staphylococcus aureus. The settings on record: MRSA 2, MH agar, 18 hours at 37° C., per disk 10 μl crude extract, 50 μg macrolactin, 78 μg erythromycin, 30 μg vancomycin, 10 μg ampicillin. The method, then:
(§1) The agar diffusion method employing Mueller-Hinton (MH) agar (Difco Laboratories) was used to determine effectiveness against bacteria and yeasts. Sterile paper disks (Schleicher & Schüell, Germany) were seeded with 10 μl crude extract or with a solution of purified macrolactin (final compound concentration on the disk 50 μg) and then placed on the surface of MH-agar plates that had been seeded beforehand with a suspension of overnight culture of the test microorganisms at a concentration of 10^5 cells/ml.
A general note: A growth-free zone around the sample is the usual read-out of agar diffusion tests.

The subject of data set [2] is MRSA 3 (methicillin-resistant S. aureus, clinical isolate). In words: agar diffusion method, inhibition zone. Type of data set: cell-based, Staphylococcus aureus. The settings on record: MRSA 3, MH agar, 18 hours at 37° C., per disk 10 μl crude extract, 50 μg macrolactin, 78 μg erythromycin, 30 μg vancomycin, 10 μg ampicillin. The method, then: as §1
For data set [3], the system named is S. aureus # (own collection, methicillin-sensitive control strain). The data set can be described thus: agar diffusion method, inhibition zone. Type of data set: cell-based, Staphylococcus aureus. To be noted: S. aureus # own collection, MH agar, 18 hours at 37° C., per disk 10 μl crude extract, 50 μg macrolactin, 78 μg erythromycin, 30 μg vancomycin, 10 μg ampicillin. The method, then:
as §1

In another data set the test system is S. aureus DSMZ 1104. In words: agar diffusion method, inhibition zone. To be noted: S. aureus DSMZ 1104, MH agar, 18 hours at 37° C., per disk 10 μl crude extract, 50 μg macrolactin, 78 μg erythromycin, 30 μg vancomycin, 10 μg ampicillin. It is filed as cell-based, Staphylococcus aureus. The method, then:
as §1

For data set [4], the system named is E. faecalis ATCC 29212. In words: agar diffusion method, inhibition zone. It is filed as cell-based, Enterococcus faecalis. To be noted: E. faecalis ATCC 29212, MH agar, 18 hours at 37° C., per disk 10 μl crude extract, 50 μg macrolactin, 78 μg erythromycin, 30 μg vancomycin, 10 μg ampicillin. The method, then:
as §1

In data set [5] the test system is E. faecalis VRAS E305. The data set can be described thus: agar diffusion method, inhibition zone. It is filed as cell-based, Enterococcus faecalis. To be noted: E. faecalis VRAS E305, MH agar, 18 hours at 37° C., per disk 10 μl crude extract, 50 μg macrolactin, 78 μg erythromycin, 30 μg vancomycin, 10 μg ampicillin. The method, then: as §1
Data set [6] deals with E. faecium VRAR E315. The data set can be described thus: agar diffusion method, inhibition zone. Type of data set: cell-based, Enterococcus faecium. The settings on record: E. faecium VRAR E315, MH agar, 18 hours at 37° C., per disk 10 μl crude extract, 50 μg macrolactin, 78 μg erythromycin, 30 μg vancomycin, 10 μg ampicillin. The method, then: as §1
In data set [7] the test system is B. cepacia SCV 141. In words: agar diffusion method, inhibition zone. It is filed as cell-based, Burkholderia cepacia. The settings on record: 18 hours at 37° C., per disk 10 μl crude extract, 50 μg macrolactin, 78 μg erythromycin, 10 μg ampicillin. The method, then: as §1
The B. cepacia strain used, which is a clinical isolate from a cystic fibrosis patient, forms small colonies (SCV 141).

Data set [8] concerns S. aureus # (non-methicillin-resistant reference strain). In words: MIC / MBC in liquid culture. The settings on record: Staphylococcus aureus; S. aureus #; read-out: MIC (minimal inhibitory concentration). It is filed as cell-based, Staphylococcus aureus.
The test system of another data set is MRSA 2. In words: MIC / MBC in liquid culture. Type of data set: cell-based, Staphylococcus aureus. The settings on record: Staphylococcus aureus; MRSA 2; read-out: MIC (minimal inhibitory concentration).
A further data set relates to MRSA 3. In words: MIC / MBC in liquid culture. Type of data set: cell-based, Staphylococcus aureus. To be noted: Staphylococcus aureus; MRSA 3; read-out: MIC (minimal inhibitory concentration).
Data set [9] deals with E. faecalis ATCC 29212. In words: MIC / MBC in liquid culture. Type of data set: cell-based, Enterococcus faecalis. To be noted: Enterococcus faecalis, ATCC29212, E. faecalis ATCC 29212; read-out: MIC (minimal inhibitory concentration).
Data set [10] concerns E. faecalis VRAS E305. In words: MIC / MBC in liquid culture. The settings on record: Enterococcus faecalis, VRASE305; E. faecalis VRAS E305; read-out: MIC (minimal inhibitory concentration). Type of data set: cell-based, Enterococcus faecalis.
The test system of data set [11] is E. faecium VRAR E315. The data set can be described thus: MIC / MBC in liquid culture. It is filed as cell-based, Enterococcus faecium. To be noted: Enterococcus faecium, VRARE315; E. faecium VRAR E315; read-out: MIC (minimal inhibitory concentration).
Data set [12] deals with B. cepacia SCV 141. The data set can be described thus: MIC / MBC in liquid culture. Type of data set: cell-based, Burkholderia cepacia. To be noted: Burkholderia cepacia, SCV141, read-out: MIC (minimal inhibitory concentration). The text has this:
(§2) 7-O-malonyl macrolactin A was not effective against some of the gram-negative bacteria tested by the inventors.

A further data set relates to B. cepacia WT139. In words: MIC / MBC in liquid culture. The settings on record: Burkholderia cepacia, read-out: MIC (minimal inhibitory concentration). It is filed as cell-based, Burkholderia cepacia.
Text: as §2

Data set [13] relates to L929 mouse fibroblast cells. In words: inhibition of proliferation, CyQUANT cell proliferation test. Type of data set: cell-based. To be noted: 5 days. The method, then: The cytotoxicity of 7-O-malonyl macrolactin A was compared to that of 7-O-succinyl macrolactin A and macrolactin A in vitro with respect to the inhibition of the proliferation of L929 mouse fibroblast cells or the human epithelial cell line HeLa.
For the cell culture, the HeLa cells were cultivated in low-glucose DMEM medium (Gibco), and the L929 cells in high-glucose DMEM medium. Both were supplemented with 10% by volume foetal calf serum (Gibco) at 37° C. in an atmosphere containing 5% CO2. The cells were extracted from stock cultures by means of trypsinization with EDTA (HeLa) or without EDTA (L929), then counted and diluted to 2×10^5 cells/ml. For the tests, microtitre plates (Nunc.) comprising 96 depressions were plated out in serial dilution without or in the presence of the test compounds or methanol. Determination of morphological alterations of the cells was carried out by means of phase contrast microscopy after 1, 2 and 5 days incubation.
After 5 days cultivation, cell counts were determined by the CyQUANT cell proliferation test (Molecular Probes), which is a highly sensitive microtitre plate test based on fluorescence. The test employs the dye CyQUANT, which, by binding to cellular nucleic acids, enhances fluorescence, which can then be measured by fluorescein excitation. The emission of fluorescence by the dye-nucleic acid complex correlated linearly with the cell count. For test purposes, the residue was carefully removed after 5 days incubation, the cells washed with PBS (phosphate buffered saline solution), the buffer removed and the cells frozen at −80° C. For the test, the cells were thawed at ambient temperature and lysated in a buffered solution containing the dye CyQUANT, in accordance with manufacturer's instructions. Fluorescence was measured by means of a fluormetric microtitre-plate reader (Titertex Fluorskan II) (excitation at 480 nm, emission at 520 nm). The […] were used to calculate the percentage of cellular proliferation in medium both alone and in the presence of serial dilutions of methanol and the macrolactin compounds. […] Proliferation was measured by means of the fluorescence-based test CyQUANT for determining viable cell counts. Table 5 illustrates the relative inhibition of proliferation as compared to a control culture comprising fresh medium without the addition of a macrolactin.

The subject of a further data set is HIV. To be noted: state of the art; cited from earlier work.
The conditions of data set [14]: state of the art; cited from earlier work.
The next data set has as its system bacteria. The settings on record: state of the art; cited from earlier work.
Data set [15] relates to Candida parapsilosis DSM5784. The data set can be described thus: MIC / MBC in liquid culture. It is filed as cell-based. To be noted: Lodderomyces parapsilosis, read-out: MIC (minimal inhibitory concentration).
The test system of a further data set is Candida krusei DSM 6128. The data set can be described thus: MIC / MBC in liquid culture. The settings on record: Pichia kudriavzevii, DSM6128, read-out: MIC (minimal inhibitory concentration). Type of data set: cell-based.
For data set [16], the system named is Candida albicans DSM 11225. The data set can be described thus: MIC / MBC in liquid culture. Type of data set: cell-based. The settings on record: DSM11225, read-out: MIC (minimal inhibitory concentration).
For data set [17] the following is noted: JP 9301970; cited from earlier work.

On to `CC1(C)S[C@@H]2[C@H](NC(=O)[C@H](N)c3ccccc3)C(=O)N2[C@H]1C(=O)O` [Ampicillin, ampicillin], for which the zone of inhibition at 10 µg/disc in data set [1] (Staphylococcus aureus) came out at 0 mm; in data set [2] (Staphylococcus aureus), 0 mm; in data set [3] (Staphylococcus aureus), 41 mm; with S. aureus DSMZ 1104 (Staphylococcus aureus, DSMZ1104), 30 mm; in the data set on E. faecalis ATCC 29212 [4] (Enterococcus faecalis, ATCC29212), 32 mm; in the data set on E. faecalis VRAS E305 [5] (Enterococcus faecalis, VRASE305), 35 mm. The zone of inhibition at 10 µg/disc in the data set with E. faecium VRAR E315 [6] (Enterococcus faecium, VRARE315) is 0 mm; with B. cepacia SCV 141 [7] (Burkholderia cepacia, SCV141, MH agar), 0 mm. Also, the MIC in [8] is 0.06 µg/mL (≈ 0.172 µM); in the data set on MRSA 2, above 128 µg/mL; in the data set on MRSA 3 it was 64 µg/mL (≈ 183 µM); in the data set with E. faecalis ATCC 29212 [9], 0.5 µg/mL (≈ 1.43 µM); in the data set on E. faecalis VRAS E305 [10], 0.5 µg/mL (≈ 1.43 µM); with E. faecium VRAR E315 [11] it was above 128 µg/mL. Besides, the MIC in the data set with B. cepacia SCV 141 [12] is 128 µg/mL (≈ 366 µM); in the data set on B. cepacia WT139, above 128 µg/mL.

On to `C[C@@H]1CCC/C=C/C=C/C(O)CC(O)C/C=C\C=C\C(O)C/C=C/C=C\C(=O)O1` (stereo partly drawn) [Macrolactin A, 8, 14, 16-trihydroxy-24(R)-methyl-oxacyclotetracosa-3(Z), 5(B), 9(E), 11(Z), 17(E), 19(E)-hexaen-2-on], for which the Inhibition zone in data set [1] is listed as 27 mm; in data set [2] it was 35 mm; in [3], 25 mm; with S. aureus DSMZ 1104 it was 18 mm; in the data set on E. faecalis ATCC 29212 [4], 0 mm; in the data set with E. faecalis VRAS E305 [5] it was 0 mm. The Inhibition zone with E. faecium VRAR E315 [6] and in the data set on B. cepacia SCV 141 [7] (MH agar) was 0 mm in each case. The Inhibition of proliferation is recorded as 23% in data set [13] (compound concentration 3.9 μg/ml); 29% in data set [13] (compound concentration 7.8 μg/ml); 38% in [13] (compound concentration 15.6 μg/ml); 81% in data set [13] (compound concentration 31.25 μg/ml); 83% in data set [13] (compound concentration 56.5 μg/ml); 83% in data set [13] (compound concentration 125 μg/ml). Further, the “antiviral activity” value with HIV is listed as “active against HIV”. Besides, the “cytotoxicity” value in [14] was “cytotoxic”. The “antibacterial activity” value with bacteria was “relatively weak”.

In the case of `Clc1ccc(COC(Cn2ccnc2)c2ccc(Cl)cc2Cl)c(Cl)c1` (stereo not shown) [MCZ, miconazol], the MIC (in data set [15]; in the data set on Candida krusei DSM 6128; in data set [16]) was 2 µg/mL (≈ 4.81 µM) each time.

With macrolactin M, the “antimicrobial activity” value in data set [17] is reported as “antimicrobially active”.
